According to the kinase profiling compilation of Christmann-Franck et al. (2016):

Experiments:
Assay in all cases: KINOMEscan competition binding
Settings in all cases: compound 10.0 µM
[1] = molecular target: STK10 (human) (UniProt O94804)
[2] = molecular target: ULK1 (human) (UniProt O75385)
[3] = molecular target: MAPK7 (human) (UniProt Q13164)
[4] = molecular target: NLK (human) (UniProt Q9UBE8)
[5] = molecular target: RPS6KA1 KD1 (human) (UniProt Q15418)
[6] = molecular target: RET (human) (UniProt P07949)
[7] = molecular target: ACVR1B (human) (UniProt P36896)
[8] = molecular target: BRSK1 (human) (UniProt Q8TDC3)
[9] = molecular target: BMPR1B (human) (UniProt O00238)
[10] = molecular target: FLT4 (human) (UniProt P35916)
[11] = molecular target: MET (human) (UniProt P08581)
[12] = molecular target: TAOK3 (human) (UniProt Q9H2K8)
[13] = molecular target: PKN3 (M.tuberculosis) (UniProt Q6P5Z2)
[14] = molecular target: CAMK4 (human) (UniProt Q16566)
[15] = molecular target: TGFBR1 (human) (UniProt P36897)
[16] = molecular target: FES (human) (UniProt P07332)
[17] = molecular target: MAPK14 (human) (UniProt Q16539)
[18] = molecular target: DAPK3 (human) (UniProt O43293)
[19] = molecular target: PIK3C2G (human) (UniProt O75747)
[20] = molecular target: PAK6 (human) (UniProt Q9NQU5)
[21] = molecular target: MAP2K5 (human) (UniProt Q13163)
[22] = molecular target: PHKG1 (human) (UniProt Q16816)
[23] = molecular target: MAP4K4 (human) (UniProt O95819)
[24] = molecular target: BMPR1A (human) (UniProt P36894)
[25] = molecular target: NUAK2 (human) (UniProt Q9H093)
[26] = molecular target: DDR2 (human) (UniProt Q16832)
[27] = molecular target: CAMKK1 (human) (UniProt Q8N5S9)
[28] = molecular target: PKN2 (human) (UniProt Q16513)
[29] = molecular target: MAK (human) (UniProt P20794)
[30] = molecular target: FER (human) (UniProt P16591)
[31] = molecular target: RPS6KA6 KD1 (human) (UniProt Q9UK32)
[32] = molecular target: IGF1R (human) (UniProt P08069)
[33] = molecular target: NEK2 (human) (UniProt P51955)
[34] = molecular target: CLK4 (human) (UniProt Q9HAZ1)
[35] = molecular target: EPHA2 (human) (UniProt P29317)
[36] = molecular target: RIOK1 (human) (UniProt Q9BRS2)
[37] = molecular target: PDGFRA (human) (UniProt P16234)
[38] = molecular target: PIM2 (human) (UniProt Q9P1W9)
[39] = molecular target: FGFR2 (human) (UniProt P21802)
[40] = molecular target: MAP2K3 (human) (UniProt P46734)
MAP2K3 (human), sequence (P46734 whole entry, looked up): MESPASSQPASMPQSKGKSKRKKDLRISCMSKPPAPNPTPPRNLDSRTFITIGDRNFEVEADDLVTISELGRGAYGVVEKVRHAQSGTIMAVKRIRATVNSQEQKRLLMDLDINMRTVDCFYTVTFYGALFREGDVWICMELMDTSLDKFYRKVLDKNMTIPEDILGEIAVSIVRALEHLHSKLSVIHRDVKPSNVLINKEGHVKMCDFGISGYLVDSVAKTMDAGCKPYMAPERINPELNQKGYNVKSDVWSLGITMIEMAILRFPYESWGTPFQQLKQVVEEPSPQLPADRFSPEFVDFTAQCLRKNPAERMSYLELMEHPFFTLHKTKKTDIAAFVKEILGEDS

STK10 (human), sequence (O94804 whole entry, looked up): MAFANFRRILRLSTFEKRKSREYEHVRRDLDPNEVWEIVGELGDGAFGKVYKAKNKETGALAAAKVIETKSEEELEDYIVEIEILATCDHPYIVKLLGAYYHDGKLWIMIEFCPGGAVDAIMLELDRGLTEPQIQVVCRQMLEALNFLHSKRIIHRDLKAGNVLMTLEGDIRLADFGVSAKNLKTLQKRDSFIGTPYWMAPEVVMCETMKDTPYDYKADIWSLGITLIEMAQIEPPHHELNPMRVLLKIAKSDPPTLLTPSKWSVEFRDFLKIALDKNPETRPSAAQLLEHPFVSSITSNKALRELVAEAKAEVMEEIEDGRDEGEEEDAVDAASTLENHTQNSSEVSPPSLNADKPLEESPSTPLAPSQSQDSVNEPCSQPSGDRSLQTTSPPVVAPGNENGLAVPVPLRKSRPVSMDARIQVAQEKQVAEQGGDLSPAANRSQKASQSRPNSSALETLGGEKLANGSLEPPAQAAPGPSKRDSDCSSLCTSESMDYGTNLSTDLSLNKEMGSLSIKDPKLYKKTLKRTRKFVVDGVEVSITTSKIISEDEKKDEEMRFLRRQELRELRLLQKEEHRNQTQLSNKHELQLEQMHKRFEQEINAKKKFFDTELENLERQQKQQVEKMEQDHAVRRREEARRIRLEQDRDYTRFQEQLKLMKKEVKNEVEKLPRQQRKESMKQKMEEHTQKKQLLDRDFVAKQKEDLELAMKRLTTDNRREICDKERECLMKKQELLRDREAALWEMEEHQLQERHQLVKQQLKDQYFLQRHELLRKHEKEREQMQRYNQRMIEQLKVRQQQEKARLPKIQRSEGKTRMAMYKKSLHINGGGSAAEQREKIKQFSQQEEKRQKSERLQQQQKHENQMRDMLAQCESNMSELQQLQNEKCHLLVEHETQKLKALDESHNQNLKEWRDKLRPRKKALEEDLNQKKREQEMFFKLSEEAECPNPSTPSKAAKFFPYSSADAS
MET (human), sequence (P08581 whole entry, looked up): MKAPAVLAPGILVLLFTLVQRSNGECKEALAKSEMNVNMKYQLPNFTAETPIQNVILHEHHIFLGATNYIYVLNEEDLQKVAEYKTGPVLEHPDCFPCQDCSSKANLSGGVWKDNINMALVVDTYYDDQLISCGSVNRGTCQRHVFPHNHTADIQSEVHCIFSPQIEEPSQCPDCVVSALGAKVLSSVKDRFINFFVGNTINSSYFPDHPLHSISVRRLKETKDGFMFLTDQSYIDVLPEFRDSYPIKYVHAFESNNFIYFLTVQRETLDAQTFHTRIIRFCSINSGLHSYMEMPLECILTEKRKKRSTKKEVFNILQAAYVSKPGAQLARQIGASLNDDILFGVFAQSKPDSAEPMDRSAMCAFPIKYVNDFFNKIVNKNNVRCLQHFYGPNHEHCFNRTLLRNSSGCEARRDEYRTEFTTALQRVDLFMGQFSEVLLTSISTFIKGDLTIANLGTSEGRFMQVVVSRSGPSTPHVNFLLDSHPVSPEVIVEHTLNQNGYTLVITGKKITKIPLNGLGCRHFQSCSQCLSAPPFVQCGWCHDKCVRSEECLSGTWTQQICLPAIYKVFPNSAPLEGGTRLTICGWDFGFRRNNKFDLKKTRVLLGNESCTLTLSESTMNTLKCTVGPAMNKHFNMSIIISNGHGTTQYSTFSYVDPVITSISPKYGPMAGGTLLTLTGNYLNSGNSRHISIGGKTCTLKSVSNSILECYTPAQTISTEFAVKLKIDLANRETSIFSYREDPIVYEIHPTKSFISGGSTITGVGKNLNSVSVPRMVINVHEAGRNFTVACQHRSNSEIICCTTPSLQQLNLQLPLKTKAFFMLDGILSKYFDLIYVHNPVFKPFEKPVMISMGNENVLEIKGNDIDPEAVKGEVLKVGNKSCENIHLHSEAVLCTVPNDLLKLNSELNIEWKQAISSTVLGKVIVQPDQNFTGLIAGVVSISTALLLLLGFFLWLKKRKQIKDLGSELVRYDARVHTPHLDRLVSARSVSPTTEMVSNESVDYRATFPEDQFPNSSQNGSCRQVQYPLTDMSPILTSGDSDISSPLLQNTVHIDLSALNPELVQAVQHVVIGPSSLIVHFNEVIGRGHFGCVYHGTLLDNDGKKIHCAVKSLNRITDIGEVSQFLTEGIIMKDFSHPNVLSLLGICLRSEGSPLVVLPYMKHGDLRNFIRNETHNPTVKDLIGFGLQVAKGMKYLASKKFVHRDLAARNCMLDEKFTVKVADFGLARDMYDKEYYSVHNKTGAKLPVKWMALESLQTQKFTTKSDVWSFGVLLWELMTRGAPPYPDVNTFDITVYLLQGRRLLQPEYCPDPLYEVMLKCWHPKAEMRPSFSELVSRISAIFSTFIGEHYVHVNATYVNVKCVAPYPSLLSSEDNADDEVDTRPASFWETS
PDGFRA (human), sequence (P16234 whole entry, looked up): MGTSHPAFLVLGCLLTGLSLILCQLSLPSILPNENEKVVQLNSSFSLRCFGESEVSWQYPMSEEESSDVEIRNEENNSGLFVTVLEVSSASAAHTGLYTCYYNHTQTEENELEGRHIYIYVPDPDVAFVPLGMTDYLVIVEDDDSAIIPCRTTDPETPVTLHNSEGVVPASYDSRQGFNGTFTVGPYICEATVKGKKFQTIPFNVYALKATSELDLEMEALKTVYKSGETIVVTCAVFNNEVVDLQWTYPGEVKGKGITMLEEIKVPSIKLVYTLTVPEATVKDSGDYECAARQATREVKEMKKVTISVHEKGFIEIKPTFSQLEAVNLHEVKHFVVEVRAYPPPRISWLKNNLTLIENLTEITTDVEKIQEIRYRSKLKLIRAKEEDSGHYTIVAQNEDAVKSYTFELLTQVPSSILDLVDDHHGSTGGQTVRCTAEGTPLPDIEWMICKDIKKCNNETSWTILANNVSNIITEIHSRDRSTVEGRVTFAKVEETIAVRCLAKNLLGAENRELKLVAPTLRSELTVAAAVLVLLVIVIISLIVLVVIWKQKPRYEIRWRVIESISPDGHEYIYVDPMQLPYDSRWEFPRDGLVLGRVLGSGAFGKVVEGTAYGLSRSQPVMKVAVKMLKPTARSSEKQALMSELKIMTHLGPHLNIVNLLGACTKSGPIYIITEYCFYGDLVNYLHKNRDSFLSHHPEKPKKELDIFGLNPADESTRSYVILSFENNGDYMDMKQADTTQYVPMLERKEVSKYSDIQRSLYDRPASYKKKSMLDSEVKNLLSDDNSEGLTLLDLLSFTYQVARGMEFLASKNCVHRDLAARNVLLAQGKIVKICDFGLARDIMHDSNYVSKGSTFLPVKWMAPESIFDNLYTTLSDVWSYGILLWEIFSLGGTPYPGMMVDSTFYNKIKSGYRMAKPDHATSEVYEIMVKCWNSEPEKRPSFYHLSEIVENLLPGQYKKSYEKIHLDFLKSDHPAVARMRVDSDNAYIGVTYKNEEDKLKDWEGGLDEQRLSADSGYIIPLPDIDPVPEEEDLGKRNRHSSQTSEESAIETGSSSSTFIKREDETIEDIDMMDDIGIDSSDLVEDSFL
MAPK14 (human), sequence (Q16539 whole entry, looked up): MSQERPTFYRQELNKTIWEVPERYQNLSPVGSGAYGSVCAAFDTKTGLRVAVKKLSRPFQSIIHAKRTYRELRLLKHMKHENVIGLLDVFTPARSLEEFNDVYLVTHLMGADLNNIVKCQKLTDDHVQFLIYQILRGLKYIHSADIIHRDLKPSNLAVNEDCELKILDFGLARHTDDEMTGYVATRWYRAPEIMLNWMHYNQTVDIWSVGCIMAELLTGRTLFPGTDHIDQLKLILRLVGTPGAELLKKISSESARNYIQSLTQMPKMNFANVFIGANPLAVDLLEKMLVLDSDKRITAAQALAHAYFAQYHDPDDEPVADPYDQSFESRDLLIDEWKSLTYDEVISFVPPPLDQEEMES
BMPR1B (human), sequence (O00238 whole entry, looked up): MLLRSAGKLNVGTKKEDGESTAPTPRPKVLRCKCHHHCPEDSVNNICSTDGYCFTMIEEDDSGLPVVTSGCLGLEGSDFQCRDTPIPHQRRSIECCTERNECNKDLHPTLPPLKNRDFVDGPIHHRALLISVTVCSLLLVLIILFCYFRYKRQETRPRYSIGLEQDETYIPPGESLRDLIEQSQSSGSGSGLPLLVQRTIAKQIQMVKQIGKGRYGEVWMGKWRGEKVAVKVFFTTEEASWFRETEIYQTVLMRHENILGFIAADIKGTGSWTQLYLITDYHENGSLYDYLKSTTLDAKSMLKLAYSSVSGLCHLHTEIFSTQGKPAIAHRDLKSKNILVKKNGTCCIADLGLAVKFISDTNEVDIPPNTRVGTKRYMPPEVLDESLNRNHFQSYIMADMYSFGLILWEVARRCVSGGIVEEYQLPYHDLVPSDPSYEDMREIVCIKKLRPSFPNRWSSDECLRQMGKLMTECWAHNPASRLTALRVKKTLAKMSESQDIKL
PHKG1 (human), sequence (Q16816 whole entry, looked up): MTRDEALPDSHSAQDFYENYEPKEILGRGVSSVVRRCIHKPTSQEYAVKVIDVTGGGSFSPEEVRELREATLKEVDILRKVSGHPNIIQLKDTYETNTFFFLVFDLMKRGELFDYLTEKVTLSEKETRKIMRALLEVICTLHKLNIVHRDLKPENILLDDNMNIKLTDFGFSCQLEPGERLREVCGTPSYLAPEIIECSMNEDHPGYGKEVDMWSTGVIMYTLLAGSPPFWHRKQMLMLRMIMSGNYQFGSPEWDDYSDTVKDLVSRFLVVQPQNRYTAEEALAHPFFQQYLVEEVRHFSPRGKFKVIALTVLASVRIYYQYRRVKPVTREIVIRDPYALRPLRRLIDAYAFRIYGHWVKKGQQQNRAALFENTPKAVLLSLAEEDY

| Structure (SMILES) | kinase still bound, per cent of control [1] | kinase still bound, per cent of control [2] | kinase still bound, per cent of control [3] | kinase still bound, per cent of control [4] | kinase still bound, per cent of control [5] | kinase still bound, per cent of control [6] | kinase still bound, per cent of control [7] | kinase still bound, per cent of control [8] | kinase still bound, per cent of control [9] | kinase still bound, per cent of control [10] | kinase still bound, per cent of control [11] | kinase still bound, per cent of control [12] | kinase still bound, per cent of control [13] | kinase still bound, per cent of control [14] | kinase still bound, per cent of control [15] | kinase still bound, per cent of control [16] | kinase still bound, per cent of control [17] | kinase still bound, per cent of control [18] | kinase still bound, per cent of control [19] | kinase still bound, per cent of control [20] | also measured |
| --- | --- | --- | --- | --- | --- | --- | --- | --- | --- | --- | --- | --- | --- | --- | --- | --- | --- | --- | --- | --- | --- |
| O=c1cc(N2CCOCC2)oc2c(-c3cccc4c3sc3ccccc34)cccc12 | 100% | 41% | 100% | 88% | 100% | 100% | 91% | 100% | 35% | 92% | 63% | 97% | 6.6% | 100% | 100% | 93% | 98% | 92% | 16% | 94% | kinase still bound, per cent of control [21]: 98%; kinase still bound, per cent of control [22]: 100%; kinase still bound, per cent of control [23]: 100%; kinase still bound, per cent of control [24]: 94%; kinase still bound, per cent of control [25]: 100%; kinase still bound, per cent of control [26]: 100%; kinase still bound, per cent of control [27]: 85%; kinase still bound, per cent of control [28]: 86%; kinase still bound, per cent of control [29]: 43%; kinase still bound, per cent of control [30]: 100%; kinase still bound, per cent of control [31]: 71%; kinase still bound, per cent of control [32]: 97%; kinase still bound, per cent of control [33]: 96%; kinase still bound, per cent of control [34]: 95%; kinase still bound, per cent of control [35]: 72%; kinase still bound, per cent of control [36]: 100%; kinase still bound, per cent of control [37]: 100%; kinase still bound, per cent of control [38]: 84%; kinase still bound, per cent of control [39]: 82%; kinase still bound, per cent of control [40]: 91% |
| CN(C)C/C=C/C(=O)Nc1ccc(C(=O)Nc2cccc(Nc3nccc(-c4cccnc4)n3)c2)cc1 | 100% | 97% | 100% | 82% | 91% | 79% | 86% | 100% | 28% | 97% | 100% | 37% | 84% | 100% | 100% | 99% | 99% | 62% | 100% | 46% | kinase still bound, per cent of control [21]: 41%; kinase still bound, per cent of control [22]: 96%; kinase still bound, per cent of control [23]: 18%; kinase still bound, per cent of control [24]: 36%; kinase still bound, per cent of control [25]: 30%; kinase still bound, per cent of control [26]: 64%; kinase still bound, per cent of control [27]: 52%; kinase still bound, per cent of control [28]: 79%; kinase still bound, per cent of control [29]: 100%; kinase still bound, per cent of control [30]: 100%; kinase still bound, per cent of control [31]: 51%; kinase still bound, per cent of control [32]: 100%; kinase still bound, per cent of control [33]: 1.1%; kinase still bound, per cent of control [34]: 2.2%; kinase still bound, per cent of control [35]: 97%; kinase still bound, per cent of control [36]: 10%; kinase still bound, per cent of control [37]: 4%; kinase still bound, per cent of control [38]: 100%; kinase still bound, per cent of control [39]: 86%; kinase still bound, per cent of control [40]: 24% |
